Test results: patent publication US20150366847A1, “COMBINATION OF GERANYLGERANYLACETONE AND IBUDILAST AND METHODS OF USING SAME” (MediciNova, Inc., priority 2014, published 2015)

Tests used:
animal model for ALS = experiment: Rat model of ALS, brain mass; assay type: in vivo
[1] = system: animal model for Parkinson's disease; experiment: Rat model of Parkinson's disease, brain mass; assay type: in vivo
[2] = system: heat shock protein 70 (HSP70); settings: mice subjected to an occlusion of the middle cerebral artery; cited from earlier work

Row | Structure (SMILES) | brain mass (animal model for ALS) | brain mass [1] | induction of heat shock protein 70 (HSP70) [2]
1 | CC(C)C(=O)c1c(C(C)C)nn2ccccc12 [ibudilast, 3-isobutyryl-2-isopropylpyrazolo[1,5-a]pyridine] | increase brain mass | increase brain mass | –
2 | CC(=O)CCC=C(C)CC/C=C(\C)CC/C=C(\C)CCC=C(C)C (mixture of isomers) [GGA, Geranylgeranyl acetone] | – | – | inducer of heat shock protein 70 (HSP70)
